Test results published in patent US20240262845A1, “PYRIDINIUM SALTS, METHODS OF MAKING, AND METHODS OF USE” (UNIVERSITY OF WYOMING, priority 2023, published 2024).
Where a name gives a salt, the structure may show the parent alone.

Assays:
[1] = biological target: T1, lysozyme (Gallus gallus, UniProt P00698); experiment: Photochemical labeling of lysozyme with pyridinium salts (General Procedure B, LC/MS); format: biochemical, chicken; details: lysozyme labeling
T1 construct: Lysozyme (from chicken egg white, >40,000 units/mg of protein); purchased Sigma Aldrich; host or cells: chicken egg white
Method: General Procedure B: Photochemical Irradiation of Peptides and Proteins: To a 2 mL Pyrex LC/MS vial (Thermo model #03-391-39) were sequentially added solutions containing the desired biomolecule, glutathione (GSH), pyridinium salt, and ammonium acetate (NH4OAc). The resulting solution was diluted to a final volume of 500 μL and then sparged using nitrogen for a minimum of 30 minutes prior to irradiation. The actively sparging solution was then placed in an EvoluChem™ PhotoRedOx Box photoreactor that was equipped with a Kessil, PR160 427 nm LED Lamp and was then irradiated (100% lamp intensity) for the designated time at room temperature while maintaining active sparging. The resultant reaction mixture was then analyzed directly by LC/MS. Analysis of labeling outcomes using LC/MS was performed either by extracted ion chromatogram intensities (method A) or by integrating the area under the peaks associated with peptide content (method B). These values were totaled, and estimated percentages were assigned according to relative intensities of peaks or ion counts.
Labeling of Lysozyme with Pyridinium Salt 2a (Lysozyme-2a Conjugate). Labeling of lysozyme (14.3 kDa) with the pyridinium salt 2a was performed by following general procedure B using the following solutions: lysozyme (27 μL, 182 μM, 10 μM final concentration), pyridinium salt 2a (200 μL, 500 μM, 200 μM final concentration), NH4OAc (100 μL, 100 mM, pH=6.9, 20 mM final concentration), glutathione (15 μL, 10 mM, 300 μM final concentration), and water (158 μL) with a 100% intensity irradiation time of 60 minutes. The reaction mixture was analyzed directly by LC/MS using method A and was estimated to have proceeded in >95% conversion and a 10.9:1 mono:di labeled ratio and 10% glutathionylation of all unlabeled and labeled protein content was observed.
Labeling of Lysozyme with Pyridinium Salt 2b (Lysozyme-2b Conjugate). Labeling of lysozyme (14.3 kDa) with the pyridinium salt 2b was performed by following general procedure Busing the following solutions: lysozyme (19 μL, 262 μM, […]), 2b (181 μL, 554 μM, 200 μM final concentration), NH4OAc (50 μL, 200 mM, pH=6.9, 20 mM final concentration), glutathione (50 μL, 3 mM, 300 μM final concentration), and water (200 μL) with a 100% intensity irradiation time of 10 minutes. The reaction mixture was analyzed directly by LC/MS using method A and was estimated to have proceeded with 83% conversion. […]
Labeling of Lysozyme with Pyridinium Salt 2c (Lysozyme-2c Conjugate). […] The reaction mixture was analyzed directly by LC/MS using method A and was estimated to have proceeded with 85% conversion and a 3.7:1 mono:di labeled ratio and 10% glutathionylation of all protein content was observed. […]

[2] = test system: HEK293T cells; experiment: In-situ chemoproteomic tryptophan profiling of live HEK293T cells; format: cell-based, human
Method: Cell culture and in-situ tryptophan probe treatment: Cell lines were cultured at 37° C. with 5% CO2. Human embryonic kidney 293 cells expressing a mutant version of the SV40 large T antigen (HEKT293T cells) were grown in Dulbecco's Modified Eagle Medium (DMEM, Gibco) supplemented with 10% fetal bovine serum and 1% penicillin/streptomycin. For in-situ labeling, cells were grown to 90% confluence, washed with Dulbecco's phosphate buffered saline (DPBS), treated with 100× stocks of the tryptophan probes (the pyridinium salts) in OptiMem (GibCo) to generate final concentrations (0 μM, 1 μM, 10 μM, and 100 μM) in 1% dimethylsulfoxide (DMSO). Cells were incubated for 1 hour at 37° C. with 5% CO2 followed by photo-activation at the respective wavelengths for 20 minutes at 4° C. Cells were harvested with a cell scraper, washed 3× with DPBS, and pellets were stored at −80° C. until further use. The following light sources were used for photo-activation:
In-situ tryptophan probe sample processing for peptide-level characterization: Cell pellets were lysed via sonication (QSonica) at 50% amplitude, 2 seconds ON, 3 seconds OFF, 30 seconds in 40 mM HEPES pH 7.5 (4-(2-hydroxyethyl)-1-piperazineethanesulfonic acid), 1.5 mM magnesium chloride (MgCl2), 1% Sodium dodecyl sulfate (SDS), 0.8% NP-40 (also known as nonyl phenoxypolyethoxylethanol), and 1× protease inhibitors (Thermo). Protein concentration was determined by BCA (Pierce). 400 μg protein lysate were taken for copper-catalyzed azide-alkyne cycloaddition (CuAAC) reactions with 100 μM of the acid cleavable DAPBS Biotin Alkyne (Click Chemistry Tools), 250 μM copper sulfate (CuSO4), 500 μM BTTP (C20H34N10O2) (Click Chemistry Tools), and 2.5 mM ascorbate and incubated for 60 minutes at R.T. Samples were precipitated with methanol:chloroform and re-suspended in 50 mM HEPES pH 8.0 containing 1% RapiGest SF (Waters). The samples were reduced with 10 mM dithiothreitol (DTT) (Pierce) and alkylated with 25 mM iodoacetamide (Pierce). The samples were diluted down to 0.1% RapiGest SF and treated with 4 μg Trypsin/LysC (Promega) at 37° C. for 16 hours. The digested peptides were than labeled with isobaric tandem mass tag (TMT) reagents (Thermo) as specified by the manufacturer. The labeled peptides were then combined, concentrated to remove acetonitrile, and re-suspended in 50 mM HEPES pH 8.0 containing 0.2% SDS. […]
Quantitative proteomics by two-dimensional nano liquid chromatography-tandem mass spectrometry (nLC-MS/MS): For protein-level characterization, the TMT-labeled sample were reconstituted in 0.1% formic acid (FA)/2% acetonitrile for offline high-pH reversed phase separation (RP10) using a Dionex UltiMate 3000 high-performance liquid chromatography (HPLC) system with fraction collection using Chromeleon v.6.8 (Thermo) software. […]

T1 sequence (P00698 19-147): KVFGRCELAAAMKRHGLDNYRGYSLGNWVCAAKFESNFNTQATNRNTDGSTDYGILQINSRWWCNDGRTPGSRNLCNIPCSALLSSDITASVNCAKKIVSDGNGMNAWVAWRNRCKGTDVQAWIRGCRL

labeling rate compared to pyridinium salt 2a [1]: enhance rates | plasma membrane crossing / subcellular penetration ([2]; subcellular localization of modified proteins (UniProt)): readily crosses the plasma membrane
Structure (SMILES): COc1ccc2cc(-c3cc(C)[n+](N(C)C(=O)OCCCCCCN=[N+]=[N-])c(C)c3)ccc2c1 [pyridinium salt 2d, 1-((((6-azidohexyl)oxy)carbonyl)(methyl)amino)-4-(6-methoxynaphthalen-2-yl)-2,6-dimethylpyridin-1-ium tetrafluoroborate]
Trp-modified peptide fragments detected showing dose response behavior ([2]; about 100 μM probe, 60 min 37° C., 440 nm 20 min 4° C., peptide-level enrichment): 290 | selectivity for tryptophan ([2]; taking relative amino acid frequency in human proteins into account, FIG. 19B): about 82% | Western validation of NPM1 and PARP1 in enriched protein mixtures ([2]; varying concentrations, with and without blue light, protein-level enrichment): found to contain both proteins
